In one experiment the target is T1, PLK1 (Homo sapiens, UniProt P53350).
T1 construct: endogenous in cells; host or cells: HeLa cells stably expressing LgBit, with CRISPR/Cas9 knock-in of HiBit at the PLK1 C-terminus
In words: Luciferase (HiBit) assay of PLK1 degradation in HeLa LgBit (Plk1-HiBit KI) cells. The experiment is classed as cell-based. As to conditions: for PLK1 (luminescence value): released after thymidine block, compound 300 nM, luminescence at 9 hours, DMSO-only control. The source says:
(§1) Cell lines were constructed by transfecting LgBit vector into HeLa and HEK293T cell lines to be stably expressed. Then, gRNA and a donor were created to express the HiBit amino acid sequence behind the C-terminus of the PLK1 and BRD4 proteins contained in each cell, and then inserted into the cells together with a vector capable of expressing CRISPR/Cas9. Only cells that had undergone knock-in after completion of insertion were selected and passaged to be used.
(§2) Compounds according to Comparative Examples and Examples were completely dissolved in DMSO (Sigma-Aldrich Cat. No. D2438, Lot. No. RNBJ6524) and used in the following experiments. The compound of Comparative Example was the HBL-4 compound disclosed in the document (see Mu et al., Biochem Biophys Res Commun., 2020, 521(4): 833), which targets PLK1 and BRD4 like the compounds of the present invention, and the DMSO-only treatment group was used as the control group.
As to HeLa LgBit (Plk1-HiBit KI), cells were released after thymidine block, and then treated with compounds, and the process was as follows. Thymidine (Sigma-Aldrich Cat. No. T9250-5G) was completely dissolved in DW and used in the experiment. For thymidine block, cells were treated with 2 mM thymidine and incubated for 24 hours. For release and chemical treatment, the medium was suctioned and washed with 1×PBS. TyppLE™ was added and the cells were incubated for 5 min in a 37° C. CO2 incubator. Cells neutralized by adding complete medium were counted using the counter. For each well of a 96-well white plate (SPL), 3.3×10^4 cells were seeded in a total culture medium volume of 150 μl and incubated in a CO2 incubator.
(§3) Each cell line was incubated in a CO2 incubator for 18 hours, and then Endurazine was added to each well to reach 4% of the total volume. Here, the concentration of each compound after the addition was 300 nM for HeLa LgBit (Plk1-HiBit KI) and 100 nM for HEK293T LgBit (BRD4-HiBit KI). Then, the wavelength of the plate reader was set to 470 to 480 nm, and luminescence was tracked in real time.
(In general: HiBiT is a short tag that completes a luciferase, so light tracks the accessible tagged protein.)

For another experiment, the target named is T2, BRD4 (Homo sapiens, UniProt O60885).
T2 construct: endogenous in cells; host or cells: HEK293T cells stably expressing LgBit, with CRISPR/Cas9 knock-in of HiBit at the BRD4 C-terminus
In words: Luciferase (HiBit) assay of BRD4 degradation in HEK293T LgBit (BRD4-HiBit KI) cells. In kind it is cell-based. As to conditions: for BRD4 (luminescence value): compound 100 nM, luminescence at 8 hours, DMSO-only control.
Excerpt: as §1, §2
As to HEK293T LgBit (BRD4-HiBit KI), 4×10^4 cells were seeded in each well of a 96-well white plate (SPL) and cultured in a total culture medium volume of 150 μl.
as §3

SMILES strings stand for the structures. Bounds are passed on as bounds.

T1 sequence (P53350 whole entry): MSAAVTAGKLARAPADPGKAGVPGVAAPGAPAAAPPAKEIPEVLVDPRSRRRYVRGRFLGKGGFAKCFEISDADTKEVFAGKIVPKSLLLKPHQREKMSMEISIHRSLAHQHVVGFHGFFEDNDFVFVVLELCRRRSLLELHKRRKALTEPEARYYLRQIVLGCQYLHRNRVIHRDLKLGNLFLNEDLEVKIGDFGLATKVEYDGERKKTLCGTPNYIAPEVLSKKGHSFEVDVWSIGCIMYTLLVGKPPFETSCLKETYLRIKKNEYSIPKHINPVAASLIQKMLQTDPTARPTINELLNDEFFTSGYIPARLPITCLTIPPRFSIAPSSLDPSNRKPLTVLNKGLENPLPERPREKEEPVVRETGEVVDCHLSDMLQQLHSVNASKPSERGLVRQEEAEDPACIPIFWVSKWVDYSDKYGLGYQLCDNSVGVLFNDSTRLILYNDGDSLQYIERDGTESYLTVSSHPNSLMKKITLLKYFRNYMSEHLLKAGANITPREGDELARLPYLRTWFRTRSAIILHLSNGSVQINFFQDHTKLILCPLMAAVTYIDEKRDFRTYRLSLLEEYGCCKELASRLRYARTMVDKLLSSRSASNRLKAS

The molecule `CC[C@@H]1C(=O)N(C)c2cnc(Nc3ccc(C(=O)NCCOCCOCCNc4cccc5c4C(=O)N(C4CCC(=O)NC4=O)C5=O)cc3OC)nc2N1C1CCCC1` (stereo partly drawn) [Comparative Example 1, reference compound] displayed a PLK1 degradation level on PLK1 (300 nM, 9 hours) of at least 80%. Moreover, the “PLK1 (luminescence value)” value on PLK1 was 0.148. Besides, at BRD4 (100 nM, 8 hours), the BRD4 degradation level was at least 80%. Moreover, the “BRD4 (luminescence value)” value on BRD4 is 0.223.

For `CC[C@@H]1C(=O)N(C)c2cnc(Nc3ccc(C(=O)NCCOCCOCCNc4cccc5c4C(=O)N(C4CCC(=O)NC4=O)C5=O)cc3)nc2N1C1CCCC1` (stereo partly drawn) [Compound 4, 4-(((R)-8-cyclopentyl-7-ethyl-5-methyl-6-oxo-5,6,7,8-tetrahydropteridin-2-yl)amino)-N-(2-(2-(2-((2-(2,6-dioxopiperidin-3-yl)-1,3-dioxoisoindolin-4-yl)amino)ethoxy)ethoxy)ethyl)benzamide], on PLK1, the “PLK1 (luminescence value)” value is on record as 0.208. Besides, the “BRD4 (luminescence value)” value at BRD4 is 0.692.

`CC[C@@H]1C(=O)N(C)c2cnc(Nc3ccc(C(=O)NCCOCCOCCOCCOCCNc4cccc5c4C(=O)N(C4CCC(=O)NC4=O)C5=O)cc3OC)nc2N1C1CCCC1` (stereo partly drawn) [Compound 5, 4-(((R)-8-cyclopentyl-7-ethyl-5-methyl-6-oxo-5,6,7,8-tetrahydropteridin-2-yl)amino)-N-(14-((2-(2,6-dioxopiperidin-3-yl)-1,3-dioxoisoindolin-4-yl)amino)-3,6,9,12-tetraoxatetradecyl)-3-methoxybenzamide]: the “PLK1 (luminescence value)” value on PLK1 was 0.140. The “BRD4 (luminescence value)” value at BRD4 amounted to 0.491.

For `CC[C@@H]1C(=O)N(C)c2cnc(Nc3ccc(C(=O)N[C@H]4CCN(C(=O)CCC(=O)N5CCN(c6cccc7c6C(=O)N(C6CCC(=O)NC6=O)C7=O)CC5)C4)cc3OC)nc2N1C1CCCC1` (stereo partly drawn) [Compound 6, 4-(((R)-8-cyclopentyl-7-ethyl-5-methyl-6-oxo-5,6,7,8-tetrahydropteridin-2-yl)amino)-N-((3S)-1-(4-(4-(2-(2,6-dioxopiperidin-3-yl)-1,3-dioxoisoindolin-4-yl)piperazin-1-yl)-4-oxobutanoyl)pyrrolidin-3-yl)-3-methoxybenzamide], at PLK1, the “PLK1 (luminescence value)” value is 0.313. In addition, the “BRD4 (luminescence value)” value at BRD4 is listed as 0.731.

For `CC[C@@H]1C(=O)N(C)c2cnc(Nc3ccc(C(=O)NC4CCN(C(=O)CCN5CCN(c6cccc7c6C(=O)N(C6CCC(=O)NC6=O)C7=O)CC5)CC4)cc3OC)nc2N1C1CCCC1` (stereo partly drawn) [Compound 7, 4-(((R)-8-cyclopentyl-7-ethyl-5-methyl-6-oxo-5,6,7,8-tetrahydropteridin-2-yl)amino)-N-(1-(3-(4-(2-(2,6-dioxopiperidin-3-yl)-1,3-dioxoisoindolin-4-yl)piperazin-1-yl)propanoyl)piperidin-4-yl)-3-methoxybenzamide], on PLK1, the “PLK1 (luminescence value)” value was 0.120. Moreover, on BRD4, the “BRD4 (luminescence value)” value came to 0.488.

On to `CC[C@@H]1C(=O)N(C)c2cnc(Nc3ccc(C(=O)NC4CCN(C(=O)CCCNc5cccc6c5C(=O)N(C5CCC(=O)NC5=O)C6=O)CC4)cc3OC)nc2N1C1CCCC1` (stereo partly drawn) [Compound 8, 4-(((R)-8-cyclopentyl-7-ethyl-5-methyl-6-oxo-5,6,7,8-tetrahydropteridin-2-yl)amino)-N-(1-(4-((2-(2,6-dioxopiperidin-3-yl)-1,3-dioxoisoindolin-4-yl)amino)butanoyl)piperidin-4-yl)-3-methoxybenzamide], for which the “PLK1 (luminescence value)” value at PLK1 was 0.204. The “BRD4 (luminescence value)” value at BRD4 was determined as 0.394.

Consider `COc1cc(C(=O)NCCOCCOCCNc2cccc3c2C(=O)N(C2CCC(=O)NC2=O)C3=O)ccc1Nc1ncc2c(n1)N(C1CCCCC1)[C@H](C)C(=O)N2C` (stereo partly drawn) [Compound 9, 4-(((R)-8-cyclohexyl-5,7-dimethyl-6-oxo-5,6,7,8-tetrahydropteridin-2-yl)amino)-N-(2-(2-(2-((2-(2,6-dioxopiperidin-3-yl)-1,3-dioxoisoindolin-4-yl)amino)ethoxy)ethoxy)ethyl)-3-methoxybenzamide], for which the “PLK1 (luminescence value)” value on PLK1 was found to be 0.207. In addition, the “BRD4 (luminescence value)” value on BRD4 came out at 0.484.

On to `CC[C@@H]1C(=O)N(C)c2cnc(Nc3ccc(C(=O)N[C@H]4CC[C@H](N5CCN(CCOCCNc6cccc7c6C(=O)N(C6CCC(=O)NC6=O)C7=O)CC5)CC4)cc3OC)nc2N1C1CCCC1` (stereo partly drawn) [Compound 10, 4-(((R)-8-cyclopentyl-7-ethyl-5-methyl-6-oxo-5,6,7,8-tetrahydropteridin-2-yl)amino)-N-((1r,4R)-4-(4-(2-(2-((2-(2,6-dioxopiperidin-3-yl)-1,3-dioxoisoindolin-4-yl)amino)ethoxy)ethyl)piperazin-1-yl)cyclohexyl)-3-methoxybenzamide], for which the “PLK1 (luminescence value)” value on PLK1 worked out at 0.343. At BRD4, the “BRD4 (luminescence value)” value came out at 0.629.
